Results as given in patent US20150031734A1, “PHARMACEUTICAL COMPOSITION CONTAINING MIRABEGRON” (ASTELLAS PHARMA INC., priority 2012, published 2015).
≈ marks a conversion by molar mass, not a printed value.

Columns and labels:
[1] = Drug concentration (solubility) in supernatant, Experimental Example 1; type: physicochemical; conditions: shaken at room temperature for 24 hours, 150 mg as mirabegron; for solubility thermodynamic at 24 h: thermodynamic from solid
Method: The drug concentration (solubility) of each compound to be assayed was measured in accordance with the following method.
After the shaking, the mixtures were centrifuged at 3000 rpm for 15 minutes, and the drug concentration in each supernatant was measured.

[2] = Dissolution test, paddle method, JP2, 50 rpm, Experimental Example 3; type: physicochemical; conditions: 900 mL JP2, paddle 50 rpm
Method: The acid addition salts of the present invention prepared in Examples 4 and 5 (25 mg as the amount of mirabegron) were used to carry out a dissolution test in accordance with the dissolution test, method 2 (paddle method) described in the Japanese Pharmacopoeia. As the test solution, 900 mL of the second fluid (JP2) described in the disintegration test of the Japanese Pharmacopoeia was used. The paddle rotation speed was 50 rpm. The same dissolution test was carried out using the mixtures prepared in Comparative Examples 2 to 5.

[3] = Pharmacokinetics test (dogs), fasted and fed, Experimental Example 4; type: in vivo, male beagle dogs; conditions: for AUC0-10 h / Cmax: oral, 50 mg as mirabegron, plasma
Method: The rates of decrease of Cmax and AUC are calculated by the following equations:
Rd(Cmax)=[1−Cmax(Fed)/Cmax(Fasted)]×100
Rd(AUC)=[1−AUC(Fed)/AUC(Fasted)]×100
Rd(Cmax): Rate of decrease of Cmax (%) Cmax(Fed): Cmax in administration after food intake Cmax(Fasted): Cmax in administration in the fasted state Rd(AUC): Rate of decrease of AUC (%) AUC(Fed): AUC in administration after food intake AUC(Fasted): AUC in administration in the fasted state
The resulting suspension was orally administered to male beagle dogs using a sonde in a fasted state (Fasted) or after 30 minutes from the intake of a meal (Fed), and the drug concentration in the plasma was measured after predetermined periods of time. As the meal, 50 g of meat feed was used.

[4] = Stability of stored suspension by dissolution test, Experimental Example 5; type: physicochemical; conditions: vs before storage
Method: The expression “the dissolution or leakage of mirabegron is reduced or inhibited” as used herein means when the pharmaceutical composition of the present invention, which was dispersed in a solvent and has been stored, is subjected to a dissolution test in accordance with the dissolution test, method 2 (paddle method) described in the Japanese Pharmacopoeia, using 900 mL of an appropriate test solution (for example, the second fluid (JP2) described in the dissolution test of the Japanese Pharmacopoeia), for example, at a paddle rotation speed of 50-200 rpm, the change in dissolution rate is 15% or less at the maximum in comparison with the value before the storage. The change in dissolution rate is 10% or less in another embodiment, 5% or less in still another embodiment, and 3% or less in still another embodiment.
These bottles were allowed to stand in a cool place (5° C.) or under room temperature conditions for a month. The xanthan gum solution was prepared by adding xanthan gum to water at a concentration of 1 W/W % while stirring. After the storage, each suspension (25 mg as the amount of mirabegron) was used to carry out a dissolution test in accordance with the dissolution test, method 2 (paddle method) described in the Japanese Pharmacopoeia. As the test solution, 900 mL of the second fluid (JP2) described in the disintegration test of the Japanese Pharmacopoeia was used. […]

[5] = in comparison with the fasted state

Question: Which “Drug concentration in supernatant” value ([1]; 10^−1 mol/L HCl) does the source give for CCCCCCCCCCCCCCCCOS(=O)(=O)O.CCCCCCCCCCCCCCCCOS(=O)(=O)O.Nc1nc(CC(=O)Nc2ccc(CCNC[C@H](O)c3ccccc3)cc2)cs1 [Example 3] here?
Answer: Its value is 64000 ng/mL.

Question: What about the “Drug concentration in supernatant” value ([1]; 10^−3 mol/L HCl) of the same molecule?
Answer: The value was 21000 ng/mL.

Question: And the “Drug concentration in supernatant” value ([1]; Purified water)?
Answer: The value was 4000 ng/mL.

Question: For CCCCCCCCCCCCOS(=O)(=O)O.CCCCCCCCCCCCOS(=O)(=O)O.Nc1nc(CC(=O)Nc2ccc(CCNCC(O)c3ccccc3)cc2)cs1 (stereo not drawn) [Example 4], which Dissolution rate ([2]; 2 min.) is on record?
Answer: Its Dissolution rate is 5.4%.

Question: And the Dissolution rate ([2]; 15 min.)?
Answer: The Dissolution rate was 14.4%.

Question: Which solubility thermodynamic at 24 h ([1]; 10^-1 mol/L hydrochloric acid, simulated gastric fluid, 10^−1 mol/L HCl) does the source give for Nc1nc(CC(=O)Nc2ccc(CCNC[C@H](O)c3ccccc3)cc2)cs1 [Mirabegron, (R)-2-(2-aminothiazol-4-yl)-4′-{2-[(2-hydroxy-2-phenylethyl)amino]ethyl}acetanilide] here?
Answer: Its solubility thermodynamic at 24 h is 12900 µg/mL (≈ 32600 µM).

Question: What about the solubility thermodynamic at 24 h ([1]; 10^-3 mol/L hydrochloric acid, aqueous buffer, 10^−3 mol/L HCl) of the same molecule?
Answer: Its solubility thermodynamic at 24 h is 501 µg/mL (≈ 1260 µM).

Question: What about the solubility thermodynamic at 24 h ([1]; Purified water) of the same molecule?
Answer: Its solubility thermodynamic at 24 h is 116 µg/mL (≈ 293 µM).

Question: Which “Drug concentration in supernatant” value ([1]; 10^−1 mol/L HCl) does the source give for CCCCCCCCCCCCCCOS(=O)(=O)O.CCCCCCCCCCCCCCOS(=O)(=O)O.Nc1nc(CC(=O)Nc2ccc(CCNC[C@H](O)c3ccccc3)cc2)cs1 [Example 2] here?
Answer: Its value is 19000 ng/mL.

Question: And the “Drug concentration in supernatant” value ([1]; 10^−3 mol/L HCl)?
Answer: Its value is 30000 ng/mL.

Question: What about the “Drug concentration in supernatant” value ([1]; Purified water) of the same molecule?
Answer: The value was 10000 ng/mL.

Question: For CCCCCCCCCCCCOS(=O)(=O)O.Nc1nc(CC(=O)Nc2ccc(CCNCC(O)c3ccccc3)cc2)cs1 (stereo not drawn) [Example 5], which Dissolution rate ([2]; 2 min.) is on record?
Answer: The Dissolution rate was 12.8%.

Question: What about the Dissolution rate ([2]; 15 min.) of the same molecule?
Answer: The Dissolution rate was 41.3%.

Question: Which results are given for CCCCCCCCCCCCOS(=O)(=O)O.CCCCCCCCCCCCOS(=O)(=O)O.Nc1nc(CC(=O)Nc2ccc(CCNC[C@H](O)c3ccccc3)cc2)cs1 [Example 1]?
Answer: AUC0-10 h ([3]; Fasted): 1027 ± 208 ng·h/mL; Cmax ([3]; Fasted): 295 ± 166 ng/mL; AUC0-10 h ([3]; Fed (30 minutes after meal)): 833 ± 122 ng·h/mL; Cmax ([3]; Fed (30 minutes after meal)): 229 ± 86 ng/mL; rate of decrease of AUC in the fed state [3, 5]: 19%; rate of decrease of Cmax in the fed state [3, 5]: 22%; change in dissolution rate at the maximum ([4]; suspension in xanthan gum solution stored at room temperature for a month): 0.8%; change in dissolution rate ([4]; suspension in xanthan gum solution stored in a cool place (5° C.) for a month): no change in dissolution rate was observed
